EC50 and IC50 data for 32 compounds are collected here from US10307413B2, “Tetrahydro- and dihydro-isoquinoline PRMT5 inhibitors and uses thereof” (Epizyme, Inc., priority 2013, dated 2019).

Usually IC50 stands for the concentration needed to halve the response being measured.

Read-outs that look alike come from different tables or passages of the source. Bounds are passed on as bounds.

For assay [1], the system named is symmetric di-methyl arginine in Z-138 cells. As to the kind of experiment: Z-138 Methylation Assay (In Cell Western for symmetric di-methyl arginine and DNA content). To be noted: Homo sapiens, In Cell Western methylation, read-out: ICW EC50. Type of assay: cell-based. The method in brief: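 In-cell western: symmetric di-methyl arginine signal ratioed to DRAQ5 DNA content after 96 h compound exposure of Z-138 cells seeded at 50,000 cells/mL.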

The subject of the next assay is Z-138 cell line. As to the kind of experiment: Z-138 Proliferation Assay (Cell Titer Glo, 5 days). In kind it is cell-based. To be noted: Homo sapiens, read-out: Proliferation EC50. The method in brief:
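Viability via CellTiter-Glo luminescence (ATP) after 5-day incubation at 37 °C, 5% CO2. Compounds tested in triplicate, nine 3-fold steps, highest final concentration 20 μM in 0.2% DMSO; 50% inhibitory concentration by 4-parameter fit of normalized curves.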
For orientation: Cellular ATP, detected with luciferase, serves as a proxy for viable cell number.

The next assay deals with PRMT5/MEP50 (Homo sapiens (Human), UniProt O14744). In words: PRMT5 Biochemical Assay (PRMT5/MEP50 enzyme assay on peptide substrate, 3H-SAM Flashplate). To be noted: PRMT5 biochemical assay. The method in brief: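 Radiometric methylation of a biotin-tagged H4(1-15) peptide by human PRMT5/MEP50 from baculovirus/Sf9, with ³H-SAM incorporation read on streptavidin Flashplates. Buffer: Bicine pH 7.6, TCEP, BSG, Tween20; compound preincubated 30 min at 25 °C; stopped with 600 µM final unlabeled SAM. DMSO and SAH controls; IC50 from fitted % inhibition.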
PRMT5/MEP50, sequence (O14744 other isoform, or with tags, fused parts or gaps): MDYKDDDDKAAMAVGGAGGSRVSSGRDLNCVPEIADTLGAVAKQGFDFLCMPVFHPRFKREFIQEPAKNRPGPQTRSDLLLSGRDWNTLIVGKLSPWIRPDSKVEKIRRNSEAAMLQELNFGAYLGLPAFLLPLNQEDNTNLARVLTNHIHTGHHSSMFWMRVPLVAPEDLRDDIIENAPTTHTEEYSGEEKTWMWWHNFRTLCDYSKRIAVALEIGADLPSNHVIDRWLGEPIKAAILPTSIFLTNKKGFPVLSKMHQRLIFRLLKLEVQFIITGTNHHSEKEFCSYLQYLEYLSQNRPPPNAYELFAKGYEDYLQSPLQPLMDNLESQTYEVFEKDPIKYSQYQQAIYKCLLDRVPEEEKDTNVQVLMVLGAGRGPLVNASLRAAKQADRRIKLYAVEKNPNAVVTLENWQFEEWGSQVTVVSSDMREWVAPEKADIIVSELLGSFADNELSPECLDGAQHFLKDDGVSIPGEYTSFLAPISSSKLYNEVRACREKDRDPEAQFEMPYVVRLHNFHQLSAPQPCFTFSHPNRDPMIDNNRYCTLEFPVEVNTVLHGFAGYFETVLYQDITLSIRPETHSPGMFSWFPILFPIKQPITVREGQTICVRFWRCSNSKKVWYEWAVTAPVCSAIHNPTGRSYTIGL
PRMT5/MEP50, sequence (Q9BQA1 other isoform, or with tags, fused parts or gaps partner): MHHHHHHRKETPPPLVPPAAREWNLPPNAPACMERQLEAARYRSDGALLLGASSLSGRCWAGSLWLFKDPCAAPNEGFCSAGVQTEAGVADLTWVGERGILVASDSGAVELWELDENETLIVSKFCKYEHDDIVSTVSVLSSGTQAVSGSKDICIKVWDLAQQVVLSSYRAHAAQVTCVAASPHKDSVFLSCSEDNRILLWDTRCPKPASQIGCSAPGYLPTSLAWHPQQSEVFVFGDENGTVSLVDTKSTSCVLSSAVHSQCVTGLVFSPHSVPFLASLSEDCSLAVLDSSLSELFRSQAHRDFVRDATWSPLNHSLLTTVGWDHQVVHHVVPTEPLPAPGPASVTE

The mark [2] stands for this setting: 120 h, Z-138 cells, 5 days, Cell Titer Glo.

For the compound `CO[C@H]1C[C@H](Nc2cc(C(=O)NC[C@H](O)CN3CCc4ccccc4C3)ncn2)C1` [Compound 559], the values for the EC50 (in assay [1]; in the assay with Z-138 cell line (setting [2])) were less than 100 nM and 101 to 1000 nM, respectively. In addition, the concentration for half-maximal inhibition (IC50) on PRMT5/MEP50 was less than 100 nM.
As to `COCCO[C@H]1C[C@@H](Nc2cc(C(=O)NC[C@H](O)CN3CCc4ccccc4C3)ncn2)C1` [Compound 560], the EC50 in assay [1] was less than 100 nM; with Z-138 cell line (setting [2]), 101 to 1000 nM. At PRMT5/MEP50, the IC50 is less than 100 nM.
Take `COCCN(CCOC)[C@H]1C[C@H](Nc2cc(C(=O)NC[C@H](O)CN3CCc4ccccc4C3)ncn2)C1` [Compound 561]: the results for the EC50 (in assay [1]; in the assay on Z-138 cell line (setting [2])) were less than 100 nM and 101 to 1000 nM, respectively. For the same compound, at PRMT5/MEP50, the IC50 is less than 100 nM.
Turning to `COCCN(CCOC)[C@H]1C[C@@H](Nc2cc(C(=O)NC[C@H](O)CN3CCc4ccccc4C3)ncn2)C1` [Compound 562], the EC50 in assay [1] is less than 100 nM; with Z-138 cell line (setting [2]), 101 to 1000 nM. Further, the IC50 at PRMT5/MEP50 was less than 100 nM.
Take `CO[C@H]1C[C@@H](Nc2cc(C(=O)NC[C@H](O)CN3CCc4ccccc4C3)ncn2)C1` [Compound 563]: the EC50 is less than 100 nM in assay [1] and 101 to 1000 nM in the assay on Z-138 cell line (setting [2]). Further, the IC50 at PRMT5/MEP50 is less than 100 nM.
Consider `CC(=O)N(C)[C@H]1C[C@H](Nc2cc(C(=O)NC[C@H](O)CN3CCc4ccccc4C3)ncn2)C1` [Compound 564], for which the values for the EC50 (in assay [1]; in the assay with Z-138 cell line (setting [2])) were less than 100 nM and 101 to 1000 nM, respectively. For the same compound, the IC50 on PRMT5/MEP50 was less than 100 nM.
Take `O=C(NC[C@H](O)CN1CCc2ccccc2C1)c1cc(NC2CNC2)ccn1` [Compound 565]: the EC50 in assay [1] is less than 100 nM; in the assay on Z-138 cell line (setting [2]), 101 to 1000 nM. The IC50 on PRMT5/MEP50 is less than 100 nM.
As to `O=C(NC[C@H](O)CN1CCc2ccccc2C1)c1cc(NC2CCN(C(=O)C3CCC3)CC2)ccn1` [Compound 566], the EC50 (in assay [1]; in the assay with Z-138 cell line (setting [2])) was less than 100 nM in each case. Also, the IC50 at PRMT5/MEP50 is less than 100 nM.
Turning to `CN(C)C(=O)CN1CCC(Nc2cc(C(=O)NC[C@H](O)CN3CCc4ccccc4C3)ncn2)CC1` [Compound 567], the EC50 is less than 100 nM in assay [1] and 101 to 1000 nM in the assay with Z-138 cell line (setting [2]). Further, at PRMT5/MEP50, the IC50 was less than 100 nM.
On to `CSCCN1CC(Nc2cc(C(=O)NC[C@H](O)CN3CCc4ccccc4C3)ncn2)C1` [Compound 568], for which the figures for the EC50 (in assay [1]; with Z-138 cell line (setting [2])) were 101 to 1000 nM and 1000 to 10000 nM, respectively. The concentration for half-maximal inhibition (IC50) at PRMT5/MEP50 is less than 100 nM.
As for `CS(=O)(=O)CCN1CCC(Nc2cc(C(=O)NC[C@H](O)CN3CCc4ccccc4C3)ncn2)CC1` [Compound 569], the EC50 is less than 100 nM in assay [1] and 101 to 1000 nM in the assay on Z-138 cell line (setting [2]). The IC50 on PRMT5/MEP50 was less than 100 nM.
On to `CCSCCN1CCC(Nc2cc(C(=O)NC[C@H](O)CN3CCc4ccccc4C3)ncn2)CC1` [Compound 570], for which the EC50 in assay [1] was less than 100 nM; with Z-138 cell line (Z-138, 120 h) it was 1000 to 10000 nM. The IC50 at PRMT5/MEP50 is less than 100 nM.
For `CC(=O)N1CCC[C@@H](Nc2cc(C(=O)NC[C@H](O)CN3CCc4ccccc4C3)ncn2)C1` [Compound 571], the results for the EC50 (in assay [1]; in the assay with Z-138 cell line (setting [2])) were less than 100 nM and 1000 to 10000 nM, respectively. Also, the IC50 at PRMT5/MEP50 is less than 100 nM.
As to `CC(=O)N1CCC[C@H](Nc2cc(C(=O)NC[C@H](O)CN3CCc4ccccc4C3)ncn2)C1` [Compound 572], the results for the EC50 (in assay [1]; in the assay on Z-138 cell line (setting [2])) were less than 100 nM and 101 to 1000 nM, respectively. Further, the IC50 on PRMT5/MEP50 is less than 100 nM.
Consider `CC1c2ccccc2CCN1C[C@@H](O)CNC(=O)c1cc(NC2COC2)ncn1` (stereo partly drawn) [Compound 573], for which the EC50 in assay [1] was 101 to 1000 nM; in the assay on Z-138 cell line (setting [2]), more than 5000 nM. Besides, the concentration for half-maximal inhibition (IC50) on PRMT5/MEP50 was in the range of 101 to 1000 nM.
Consider `CCC(=O)N1CC(Nc2cc(C(=O)NC[C@H](O)CN3CCc4ccccc4C3)ncn2)C1` [Compound 574], for which the EC50 (in assay [1]; in the assay with Z-138 cell line (setting [2])) was less than 100 nM throughout. Besides, the IC50 on PRMT5/MEP50 was less than 100 nM.
Consider `CN1CC(Nc2ccnc(C(=O)NC[C@H](O)CN3CCc4ccccc4C3)c2)C1` [Compound 575], for which the EC50 is less than 100 nM in assay [1] and more than 5000 nM in the assay on Z-138 cell line (setting [2]). Besides, the IC50 at PRMT5/MEP50 was less than 100 nM.
In the case of `COCCN1CC(Nc2ccnc(C(=O)NC[C@H](O)CN3CCc4ccccc4C3)c2)C1` [Compound 576], the EC50 in assay [1] was less than 100 nM; with Z-138 cell line (setting [2]) it was 1000 to 10000 nM. Further, the IC50 at PRMT5/MEP50 is less than 100 nM.
On to `O=C(NC[C@H](O)CN1CCc2ccccc2C1)c1cc(NC2CN(C(=O)C3CCC3)C2)ccn1` [Compound 577], for which the EC50 (in assay [1]; in the assay with Z-138 cell line (setting [2])) was less than 100 nM throughout. The half-maximal inhibitory concentration (IC50) at PRMT5/MEP50 was less than 100 nM.
Regarding `CC(C)(O)CN1CCC(Nc2cc(C(=O)NC[C@H](O)CN3CCc4ccccc4C3)ncn2)CC1` [Compound 579], the EC50 in assay [1] was less than 100 nM; with Z-138 cell line (setting [2]) it was 101 to 1000 nM. Moreover, the half-inhibitory concentration (IC50) at PRMT5/MEP50 was less than 100 nM.
On to `CS(=O)(=O)CCN1CC(Nc2cc(C(=O)NC[C@H](O)CN3CCc4ccccc4C3)ncn2)C1` [Compound 580], for which the results for the EC50 (in assay [1]; in the assay on Z-138 cell line (setting [2])) were 101 to 1000 nM and more than 5000 nM, respectively. Also, the half-inhibitory concentration (IC50) on PRMT5/MEP50 was less than 100 nM.
With `CCSCCN1CC(Nc2cc(C(=O)NC[C@H](O)CN3CCc4ccccc4C3)ncn2)C1` [Compound 581], the EC50 in assay [1] is 101 to 1000 nM; in the assay with Z-138 cell line (Z-138, 120 h), more than 5000 nM. Also, on PRMT5/MEP50, the IC50 was less than 100 nM.
With `CC(=O)N1CC[C@H](Nc2cc(C(=O)NC[C@H](O)CN3CCc4ccccc4C3)ncn2)C1` [Compound 582], the EC50 was less than 100 nM in assay [1] and 1000 to 10000 nM in the assay on Z-138 cell line (setting [2]). Further, the IC50 at PRMT5/MEP50 was less than 100 nM.
In the case of `CC(=O)N1CC(Nc2cc(C(=O)NC[C@H](O)CN3CCc4ccccc4C3C)ncn2)C1` (stereo partly drawn) [Compound 583], the EC50 was less than 100 nM in assay [1] and 1000 to 10000 nM in the assay on Z-138 cell line (setting [2]). At PRMT5/MEP50, the IC50 was less than 100 nM.
On to `CC(=O)N1CCC(Nc2cc(C(=O)NC[C@H](O)CN3CCc4ccccc4C3C)ncn2)CC1` (stereo partly drawn) [Compound 584], for which the EC50 in assay [1] is less than 100 nM; in the assay on Z-138 cell line (setting [2]) it was 1000 to 10000 nM. On PRMT5/MEP50, the 50% inhibitory concentration (IC50) was less than 100 nM.
For the compound `O=C(NC[C@H](O)CN1CCc2ccccc2C1)c1cc(N[C@H]2CC[C@H](O)CC2)ncn1` [Compound 585], the EC50 in assay [1] was less than 100 nM; with Z-138 cell line (setting [2]), 101 to 1000 nM. Also, the IC50 on PRMT5/MEP50 was less than 100 nM.
For the compound `CO[C@H]1CC[C@H](Nc2cc(C(=O)NC[C@H](O)CN3CCc4ccccc4C3)ncn2)CC1` [Compound 586], the EC50 (in assay [1]; in the assay with Z-138 cell line (setting [2])) was less than 100 nM in each case. On PRMT5/MEP50, the IC50 was less than 100 nM.
Take `CN(C)C(=O)[C@H]1CC[C@H](Nc2cc(C(=O)NC[C@H](O)CN3CCc4ccccc4C3)ncn2)CC1` [Compound 587]: the EC50 (in assay [1]; in the assay on Z-138 cell line (setting [2])) was less than 100 nM throughout. In addition, on PRMT5/MEP50, the IC50 is less than 100 nM.
Regarding `CC1(C)c2ccccc2CCN1C[C@@H](O)CNC(=O)c1cc(NC2COC2)ncn1` [Compound 588], the EC50 in assay [1] was more than 1000 nM; in the assay on Z-138 cell line (setting [2]) it was more than 5000 nM. The IC50 on PRMT5/MEP50 was 1000 to 10000 nM.
The matching figures for `CN(C)[C@H]1CC[C@@H](Nc2cc(C(=O)NC[C@H](O)CN3CCc4ccccc4C3)ncn2)CC1` [Compound 589]: 101 to 1000 nM, 1000 to 10000 nM and less than 100 nM.
The matching figures for `CC(=O)N[C@H]1CC[C@@H](Nc2cc(C(=O)NC[C@H](O)CN3CCc4ccccc4C3)ncn2)CC1` [Compound 590]: less than 100 nM, 101 to 1000 nM and less than 100 nM.
For the compound `N[C@H]1CC[C@@H](Nc2cc(C(=O)NC[C@H](O)CN3CCc4ccccc4C3)ncn2)CC1` [Compound 591], the EC50 is less than 100 nM in assay [1] and 1000 to 10000 nM in the assay with Z-138 cell line (setting [2]). Further, at PRMT5/MEP50, the IC50 is less than 100 nM.
